Data taken from ChEMBL document CHEMBL3885881, “DrugMatrix”.

Organism: Rattus norvegicus
Assay: DrugMatrix - Regimen: Daily Repeat
Format: toxicity, organism-based, Sprague-Dawley
Design: regimen Daily Repeat, gender Male, age 6-8 weeks
Settings: in vivo, po, 0 mg/kg, route oral GAVAGE, dose level Control, vehicle 100 % WATER; for ABSOLUTE BASOPHIL / ABSOLUTE EOSINOPHIL / ABSOLUTE LYMPHOCYTE / ABSOLUTE MONOCYTE / ABSOLUTE SEGMENTED NEUTROPHIL / BASOPHIL / EOSINOPHIL / ERYTHROCYTE COUNT / HEMATOCRIT / HEMOGLOBIN / LEUKOCYTE COUNT / LYMPHOCYTE / MEAN CORPUSCULAR HEMOGLOBIN / MEAN CORPUSCULAR HEMOGLOBIN CONCENTRATION / MEAN CORPUSCULAR VOLUME / MONOCYTE / NEUTROPHIL / NUCLEATED RED BLOOD CELLS / PLATELET COUNT: tissue Blood; for ALANINE AMINOTRANSFERASE / ALBUMIN / ALKALINE PHOSPHATASE / ASPARTATE AMINOTRANSFERASE / BLOOD UREA NITROGEN / CARBON DIOXIDE / CHLORIDE / CHOLESTEROL / CREATINE PHOSPHOKINASE / CREATININE / GLUCOSE / LACTATE DEHYDROGENASE / LIPASE / PHOSPHORUS / POTASSIUM / SODIUM / TOTAL BILIRUBIN / TOTAL PROTEIN / URIC ACID: tissue Plasma

CC(CCc1ccccc1)NCC(O)c1ccc(O)c(C(N)=O)c1 (stereo unspecified) [LABETALOL]
ABSOLUTE BASOPHIL (72 h, time 3 day): 0 CELLS/uL | ABSOLUTE EOSINOPHIL (72 h, time 3 day): 168.33 CELLS/uL | ABSOLUTE LYMPHOCYTE (72 h, time 3 day): 13654.17 CELLS/uL | ABSOLUTE MONOCYTE (72 h, time 3 day): 121 CELLS/uL | ABSOLUTE SEGMENTED NEUTROPHIL (72 h, time 3 day): 1223.17 CELLS/uL | BASOPHIL (72 h, time 3 day): 0% | EOSINOPHIL (72 h, time 3 day): 1.17% | ERYTHROCYTE COUNT (72 h, time 3 day): 5.7 x10E6/uL | HEMATOCRIT (72 h, time 3 day): 35.33% | HEMOGLOBIN (72 h, time 3 day): 13.97 G/DL | LEUKOCYTE COUNT (72 h, time 3 day): 15.17 x10E3/uL | LYMPHOCYTE (72 h, time 3 day): 89.83% | MEAN CORPUSCULAR HEMOGLOBIN (72 h, time 3 day): 24.53 pg | MEAN CORPUSCULAR HEMOGLOBIN CONCENTRATION (72 h, time 3 day): 39.53 G/DL | MEAN CORPUSCULAR VOLUME (72 h, time 3 day): 62.05 fL | MONOCYTE (72 h, time 3 day): 0.83% | NEUTROPHIL (72 h, time 3 day): 8.17% | NUCLEATED RED BLOOD CELLS (72 h, time 3 day): 0 /100WBC | PLATELET COUNT (72 h, time 3 day): 1312.17 x10E3/uL | ALANINE AMINOTRANSFERASE (72 h, time 3 day): 50.83 u/L | ALBUMIN (72 h, time 3 day): 4.18 G/DL | ALKALINE PHOSPHATASE (72 h, time 3 day): 334.17 u/L | ASPARTATE AMINOTRANSFERASE (72 h, time 3 day): 82.17 u/L | BLOOD UREA NITROGEN (72 h, time 3 day): 15.5 mg/dL | CARBON DIOXIDE (72 h, time 3 day): 31.33 mmol/L | CHLORIDE (72 h, time 3 day): 99.83 MEQ/L | CHOLESTEROL (72 h, time 3 day): 76 mg/dL | CREATINE PHOSPHOKINASE (72 h, time 3 day): 272.17 u/L | CREATININE (72 h, time 3 day): 0.17 mg/dL | GLUCOSE (72 h, time 3 day): 143 mg/dL | LACTATE DEHYDROGENASE (72 h, time 3 day): 157.5 u/L | LIPASE (72 h, time 3 day): 9.33 u/L | PHOSPHORUS (72 h, time 3 day): 12.18 mg/dL | POTASSIUM (72 h, time 3 day): 6.78 MEQ/L | SODIUM (72 h, time 3 day): 143.9 MEQ/L | TOTAL BILIRUBIN (72 h, time 3 day): 0.22 mg/dL | TOTAL PROTEIN (72 h, time 3 day): 5.85 G/DL | URIC ACID (72 h, time 3 day): 1.7 mg/dL | ABSOLUTE BASOPHIL (120 h, time 5 day): 0 CELLS/uL | ABSOLUTE EOSINOPHIL (120 h, time 5 day): 0 CELLS/uL | ABSOLUTE LYMPHOCYTE (120 h, time 5 day): 13539.33 CELLS/uL | ABSOLUTE MONOCYTE (120 h, time 5 day): 177.67 CELLS/uL | ABSOLUTE SEGMENTED NEUTROPHIL (120 h, time 5 day): 2116.33 CELLS/uL | BASOPHIL (120 h, time 5 day): 0% | EOSINOPHIL (120 h, time 5 day): 0% | ERYTHROCYTE COUNT (120 h, time 5 day): 5.78 x10E6/uL | HEMATOCRIT (120 h, time 5 day): 36.13% | HEMOGLOBIN (120 h, time 5 day): 14.1 G/DL | LEUKOCYTE COUNT (120 h, time 5 day): 15.83 x10E3/uL | LYMPHOCYTE (120 h, time 5 day): 85.83% | MEAN CORPUSCULAR HEMOGLOBIN (120 h, time 5 day): 24.42 pg | MEAN CORPUSCULAR HEMOGLOBIN CONCENTRATION (120 h, time 5 day): 39 G/DL | MEAN CORPUSCULAR VOLUME (120 h, time 5 day): 62.55 fL | MONOCYTE (120 h, time 5 day): 0.83% | NEUTROPHIL (120 h, time 5 day): 13.33% | NUCLEATED RED BLOOD CELLS (120 h, time 5 day): 0.17 /100WBC | PLATELET COUNT (120 h, time 5 day): 1281.17 x10E3/uL | ALANINE AMINOTRANSFERASE (120 h, time 5 day): 55.5 u/L | ALBUMIN (120 h, time 5 day): 4.22 G/DL | ALKALINE PHOSPHATASE (120 h, time 5 day): 345 u/L | ASPARTATE AMINOTRANSFERASE (120 h, time 5 day): 92.5 u/L | BLOOD UREA NITROGEN (120 h, time 5 day): 16.5 mg/dL | CARBON DIOXIDE (120 h, time 5 day): 26.5 mmol/L | CHLORIDE (120 h, time 5 day): 103.5 MEQ/L | CHOLESTEROL (120 h, time 5 day): 78.5 mg/dL | CREATINE PHOSPHOKINASE (120 h, time 5 day): 381.5 u/L | CREATININE (120 h, time 5 day): 0.21 mg/dL | GLUCOSE (120 h, time 5 day): 161.83 mg/dL | LACTATE DEHYDROGENASE (120 h, time 5 day): 487.5 u/L | LIPASE (120 h, time 5 day): 10.17 u/L | PHOSPHORUS (120 h, time 5 day): 11.83 mg/dL | POTASSIUM (120 h, time 5 day): 6.4 MEQ/L | SODIUM (120 h, time 5 day): 146.95 MEQ/L | TOTAL BILIRUBIN (120 h, time 5 day): 0.22 mg/dL | TOTAL PROTEIN (120 h, time 5 day): 6.22 G/DL | URIC ACID (120 h, time 5 day): 1.83 mg/dL
